Data as given in PMC7689835 (Journal of Clinical Pharmacology, 2020).
One block for each compound: values may come before it.

Columns and labels:
[1] = Population PK model of AC886; type: in vivo, human
FLT3 kinase = conditions: read-out: dissociation constant (Kd); cited from earlier work
[2] = Observed plasma PK in clinical studies; type: in vivo, human; conditions: for geometric mean ratio of AC886 AUC0-24,ss to quizartinib AUC0-24,ss: noncompartmental analysis
[3] = cited from earlier work
[4] = Population PK model of quizartinib; type: in vivo, human
[5] = cited from earlier work; remark: listed apart in the source
[6] = before relative F1 for patients was incorporated into the model
[7] = interoccasion variability, occasion 1
[8] = interoccasion variability, occasion 2
[9] = interoccasion variability, occasion 3
[10] = interoccasion variability, occasion 4

- FMET (fraction of quizartinib converted to AC886) ([1]; FIXED, based on AUC ratio in phase 2 study): 0.500
- effect of mild or moderate hepatic impairment on PK ([1]; based on baseline liver function values): no effect
- Magnitude of interindividual variability in Vcm ([1]; final estimate): 117% CV
- increase in CLm with concomitant strong CYP3A inhibitor use ([1]; final model): 10.6%
- increase in Vcm with concomitant strong CYP3A inhibitor use ([1]; final model): 192%
- IIV in CLm in healthy volunteers ([1]; healthy volunteers): 45.9% CV
- IIV in CLm in patients ([1]; patients with AML): 64.1% CV
- CLm (apparent clearance for metabolite) ([1]; population mean): 4.09 L/h
- CLm (fractional change in CLm for race black) ([1]; population mean): 0.586
- CLm (fractional change in CLm for strong CYP3A inhibitors) ([1]; population mean): 0.106
- CLm (power of BSA in CLm) ([1]; population mean): 1.60
- Vcm (fractional change in Vcm for strong CYP3A inhibitors) ([1]; population mean): 1.92
- median accumulation ratio ([2]; patients from the QuANTUM-R study, multiple daily doses): 8.4
- geometric mean ratio of AC886 AUC0-24,ss to quizartinib AUC0-24,ss ([2]; study 2689-CL-2004, 30-mg cohort): 0.544
- geometric mean ratio of AC886 AUC0-24,ss to quizartinib AUC0-24,ss ([2]; study 2689-CL-2004, 60-mg cohort): 0.485
Structure (SMILES): CC(C)(CO)c1cc(NC(=O)Nc2ccc(-c3cn4c(n3)sc3cc(OCCN5CCOCC5)ccc34)cc2)no1 [AC886]
- Kd (FLT3 kinase): 1.1 nM

Structure (SMILES): CCc1nc(C(N)=O)c(Nc2ccc(N3CCC(N4CCN(C)CC4)CC3)c(OC)c2)nc1NC1CCOCC1 [gilteritinib]
- increase in exposure with strong CYP3A inhibitor itraconazole [3]: approximately 2.2 fold
- decrease in exposure with strong CYP3A4 inducer rifampin ([3]; versus gilteritinib alone): 30%

Structure (SMILES): CO[C@@H]1[C@H](N(C)C(=O)c2ccccc2)C[C@H]2O[C@]1(C)n1c3ccccc3c3c4c(c5c6ccccc6n2c5c31)C(=O)NC4 [midostaurin]
- decrease in exposure with CYP3A4 induction by rifampicin [3]: > 10 fold
- increase in exposure with CYP3A inhibition by ketoconazole [3]: > 10 fold

- increase in CL in patients with AML (initial characterization) [4, 6]: 75%
- increase in Vc in patients with AML (initial characterization) [4, 6]: 36%
- increase in Vp1 in patients with AML (initial characterization) [4, 6]: 102%
- effect of eGFR on quizartinib CL ([4]; covariate test and sensitivity analysis): No significant effect
- Magnitude of interindividual variability in ALAG1 ([4]; final estimate): 62.0% CV
- Magnitude of interindividual variability in CL ([4]; final estimate): 55.1% CV
- Magnitude of interindividual variability in D1 ([4]; final estimate): 69.3% CV
- Magnitude of interindividual variability in F1 ([4]; final estimate): 34.8% CV
- Magnitude of interindividual variability in Ka ([4]; final estimate): 38.5% CV
- Magnitude of interindividual variability in Q1 ([4]; final estimate): 24.8% CV
- Magnitude of interindividual variability in Vc ([4]; final estimate): 27.6% CV
- Magnitude of interindividual variability in Vp1 ([4]; final estimate): 39.7% CV
- decrease in CL with strong CYP3A inhibitor use ([4]; final model): 44.1%
- increase in CL for patients with AML versus healthy volunteers ([4]; final model): 8.2%
- increase in F1 with strong CYP3A inhibitor use ([4]; final model): 13.6%
- reduction in bioavailability for patients with AML versus healthy volunteers ([4]; final model): 40.1%
- Vd ([4]; human, plasma, oral): 194 L
- IOV in CL on occasion 1 [4, 7]: 40.9% CV
- IOV in F1 on occasion 1 [4, 7]: 22.6% CV
- IOV in Vc on occasion 1 [4, 7]: 20.3% CV
- IOV in CL on occasion 2 [4, 8]: 40.9% CV
- IOV in Vc on occasion 2 [4, 8]: 20.3% CV
- IOV in CL on occasion 3 [4, 9]: 40.9% CV
- IOV in F1 on occasion 3 [4, 9]: 22.6% CV
- IOV in Vc on occasion 3 [4, 9]: 20.3% CV
- IOV in CL on occasion 4 [4, 10]: 40.9% CV
- IOV in Vc on occasion 4 [4, 10]: 20.3% CV
- ALAG1 (absorption lag time) ([4]; population mean): 0.205 h
- CL (apparent clearance for parent) ([4]; population mean): 2.77 L/h
- D1 (duration of zero-order input to depot compartment) ([4]; population mean): 0.708 h
- F1 (fractional change in F1 for strong CYP3A inhibitors) ([4]; population mean): 0.136
- F1 (fractional change in study 019 F1 for fed) ([4]; population mean): 0.0509
- Q1 (exponent for BSA on Q1) ([4]; population mean): 0.970
- Vc (exponent of [ALB/4.1] for Vc) ([4]; population mean): −0.725
- Vc (exponent of [BSA/1.9] for Vc) ([4]; population mean): 1.46
- Vp1 (exponent for BSA on Vp1) ([4]; population mean): 1.50
- Vp1 (exponent for age on Vp1) ([4]; population mean): 0.453
- Ka (first-order absorption constant for healthy participants) ([4]; population mean, healthy participants): 0.874 h⁻¹
- Ka (first-order absorption constant for patients) ([4]; population mean, patients with AML): 1.68 h⁻¹
- Ka (fractional change in Ka for fed status [019 only]) ([4]; population mean, study AC220-019, fed vs fasted): −0.512
- decrease in ka under fed versus fasted conditions ([4]; study AC220-019): 51.2%
- increase in F1 under fed versus fasted conditions ([4]; study AC220-019): 5.1%
- Tmax ([2]; human, plasma, oral, observed Tmax, patients with AML): ~2 h
Structure (SMILES): CC(C)(C)c1cc(NC(=O)Nc2ccc(-c3cn4c(n3)sc3cc(OCCN5CCOCC5)ccc34)cc2)no1 [quizartinib]
- increase in quizartinib exposure by strong CYP3A inhibitors ([5]; drug-drug interaction study with ketoconazole or fluconazole): approximately 2 fold
- effect of lansoprazole on bioavailability ([5]; phase 1 study): did not result in a meaningful change
